Measurements from US10131663B2, “Chemical compounds” (AstraZeneca AB, priority 2016, dated 2018).
Values after ≈ are worked out from the molar mass of the structure shown.

Legend:
[1] = molecular target: Estrogen Receptor (ERα) in MCF-7 cells (Homo sapiens (Human), UniProt P03372); assay: MCF-7 ER down-regulation assay (immuno-fluorescence); type: cell-based
Protocol: The Echo uses acoustic technology to perform direct microplate-to-microplate transfers of DMSO compound solutions to assay plates. […] Cells were fixed at room temperature for 20 mins before being washed two times with 250 μL PBS/Proclin (PBS with a Biocide preservative) using a BioTek platewasher, 40 μL of PBS/Proclin was then added to all wells and the plates stored at 4° C. The fixing method described above was carried out on the Integrated Echo 2 workcell. Immunostaining was performed using an automated AutoElisa workcell. […] The plates were incubated overnight at 4° C. […] The mean total intensity was normalized for cell number giving the total intensity per cell. The data was exported into a suitable software package (such as Origin) to perform curve fitting analysis.

[2] = Human plasma protein binding (equilibrium dialysis); type: in vitro ADME; conditions: dialysis 18 hours
Protocol: The automated equilibrium dialysis assay in human plasma uses the RED (Rapid Equilibrium Dialysis) Device and sample handling. The assay generally runs over two to three days including delivery of results. After dialysis for 18 hours, plasma and buffer samples are prepared for analysis by liquid chromatography and mass spectrometry. Samples are generally tested in singlicates and quantified by LC/MSMS by using a 7-point calibration curve in plasma. The compounds are pooled together in plasma pools up to 10 compounds. Three reference compounds are used in each run, Propranolol, Metoprolol and Warfarin. Warfarin is used as a control in each pool and Propranolol and Metoprolol are placed randomly in each run. An in-house Excel macro is used for preparation of files for the robot and the mass spectrometer and is also used for the calculations of fraction unbound (fu %) in plasma.

[3] = log D (shake flask, 1-octanol/aqueous buffer); type: physicochemical
Description: The lipophilicity of a drug is an important physical property which may influence many biological and metabolic properties of a compound, for example the absorption, distribution, metabolism, excretion and toxicity profiles of a compound. The distribution coefficient between 1-octanol and aqueous buffer, Log DO/W, at pH 7.4, is the most commonly used measurement of the lipophilicity of a compound. The current method for measurement of Log DO/W is based on the traditional shake flask technique, but with the modification of measuring compounds in mixtures of ten at a time using UPLC with quantitative mass spectrometry (MS) as a method to measure the relative octanol and aqueous concentrations. […] An additional QC sample Caffeine, with low Log D, are used and randomly placed in all runs. The method has been thoroughly validated against the previous shake flask methodologies.

[4] = Thermodynamic solubility (shake-flask); type: physicochemical; conditions: aqueous phosphate buffer, 25 °C, pH 7.4, aqueous buffer, thermodynamic from solid, aqueous phosphate buffer pH 7.4, 24 hours
Protocol: The thermodynamic solubility of a research compound is measured under standard conditions. It is a shake-flask approach that uses 10 mM DMSO solutions which are supplied from the Compound Managements liquid store and is a high throughput method. The dried compounds are equilibrated in an aqueous phosphate buffer (pH 7.4) for 24 hours at 25° C., the portion with the dissolved compound is then separated from the remains. The solutions are analyzed and quantified using UPLC/MS/MS, QC-samples are incorporated in each assay-run to ensure the quality of the assay.

[5] = molecular target: recombinant human Estrogen Receptor alpha ligand binding domain (ER alpha-LBD (GST)) (Homo sapiens (Human), UniProt P03372); assay: ERα binding assay (LanthaScreen TR-FRET competition); conditions: TR-FRET, displacement of Fluormone ES2
Protocol: The ability of compounds to bind to isolated Estrogen Receptor Alpha Ligand binding domain (ER alpha-LBD (GST)) was assessed in competition assays using a LanthaScreen™ Time-Resolved Fluorescence Resonance Energy Transfer (TR-FRET) detection end-point. […] The assay principle is that ER alpha-LBD (GST) is added to a fluorescent ligand to form a receptor/fluorophore complex. A terbium-labelled anti-GST antibody (Product code PV3551) is used to indirectly label the receptor by binding to its GST tag, and competitive binding is detected by a test compound's ability to displace the fluorescent ligand, resulting in a loss of TR-FRET signal between the Tb-anti-GST antibody and the tracer. The assay was performed as follows with all reagent additions carried out using the Beckman Coulter BioRAPTR FRD microfluidic workstation: • 1. Acoustic dispense 120 nL of the test compound into a black low volume 384 well assay plates. • 2. Prepare 1×ER alpha-LBD/Tb-antiGST Ab in ES2 screening buffer and incubate for 15 minutes. • 3. Dispense 6 μL of the 1×[…]/Tb-anti-GST Ab reagent into each well of the assay plate followed by 6 μL of Fluorophore reagent into each well of the assay plate • 4. Cover the assay plate to protect the reagents from light and evaporation, and incubate at room temperature for 4 hours. • 5.
TR-FRET dose response data obtained with each compound was exported into a suitable software package (such as Origin or Genedata) to perform curve fitting analysis. Competitive ER alpha binding was expressed as an IC50 value.

hERG potassium channel = hERG potassium channel (Homo sapiens (Human), UniProt Q12809); assay: hERG binding assay (automated patch clamp, CHO cells); type: cell-based; conditions: CHO cell line, Nanion Syncropatch 384PE
Protocol: Reagent preparations include: • 1.
Cell preparations: • 1. If using cell culture; cells to be incubated at 30° C. for approximately 4-6 days prior to being used. Day of assay lift cells using accutase and re-suspend in 20 ml cell buffer to a density of 0.8 to 1e6 cells/ml. • 2. If using assay ready cryovials; rapidly thaw two cryovials at 37° C. and slowly pipette into 23 ml external solution • 3.
All compounds were acoustically dispensed in quadruplicate using a Labcyte Echo. […] Fill 384 well medium resistance 4 hole chips with 40 μl external buffer and perfuse internal buffer to the underside of plate. • 2. Dispense 20 μl of cells into each well of the chip followed by 20 μl of seal enhancer. • 3. Remove 40 μl of reagent from each well to the wash station, leaving a residual volume of 40 μl • 4. Dispense 40 μl of reference buffer with a removal step of 40 μl after 3 min, repeat this step. • 5.
hERG-mediated currents were elicited using a voltage step protocol consisting of acontinuous holding voltage of −80 mV, with a 500 ms step to 60 mV followed by a 500 ms step to −40 mV every 15 seconds. hERG current magnitude was measured automatically from the leak-subtracted traces by the Nanion software by taking the peak of the hERG “tail” current at −40 mV every 15 seconds and taking the last three of these responses for each concentration to generate the concentration-effect curve.
Calculation of results is performed using APC package within Genedata. For the routine normalization of well data with Neutral and Inhibitor control well groups as reference, GeneData Assay Analyzer uses the following equation to normalize the signal values to the desired signal range:
[formula] • x is the measured raw signal value of a well • is the median of the measured signal values for the Central Reference (Neutral) wells on a plate • is the median of the measured signal values for the Scale Reference (Inhibitor) wells on a plate • CR is the desired median normalized value for the Central Reference (Neutral) • SR is the desired median normalized value for the Scale Reference (Inhibitor)

[6] = 1-octanol/aqueous buffer, pH 7.4, pH 7.4, 1-octanol/aqueous buffer
[7] = pH 7.4, 1-octanol/aqueous buffer

Sequence of Estrogen Receptor (ERα) in MCF-7 cells (P03372 whole entry): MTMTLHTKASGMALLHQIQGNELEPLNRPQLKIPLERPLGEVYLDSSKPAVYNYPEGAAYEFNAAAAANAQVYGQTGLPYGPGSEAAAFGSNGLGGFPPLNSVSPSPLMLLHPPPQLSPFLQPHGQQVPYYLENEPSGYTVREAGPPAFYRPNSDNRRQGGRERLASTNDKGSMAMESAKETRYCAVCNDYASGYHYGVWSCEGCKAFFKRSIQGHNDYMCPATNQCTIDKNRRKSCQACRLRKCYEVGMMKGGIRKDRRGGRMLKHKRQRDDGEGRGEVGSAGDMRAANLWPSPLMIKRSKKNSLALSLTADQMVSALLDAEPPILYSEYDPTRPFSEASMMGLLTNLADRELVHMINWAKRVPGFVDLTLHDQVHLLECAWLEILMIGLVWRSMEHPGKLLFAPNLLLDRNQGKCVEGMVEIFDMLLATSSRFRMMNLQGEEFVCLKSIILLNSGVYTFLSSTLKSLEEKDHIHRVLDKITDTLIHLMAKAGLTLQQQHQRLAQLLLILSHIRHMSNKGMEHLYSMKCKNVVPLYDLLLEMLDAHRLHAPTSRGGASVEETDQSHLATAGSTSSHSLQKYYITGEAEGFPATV
Sequence of recombinant human Estrogen Receptor alpha ligand binding domain (ER alpha-LBD (GST)) (P03372 307-554): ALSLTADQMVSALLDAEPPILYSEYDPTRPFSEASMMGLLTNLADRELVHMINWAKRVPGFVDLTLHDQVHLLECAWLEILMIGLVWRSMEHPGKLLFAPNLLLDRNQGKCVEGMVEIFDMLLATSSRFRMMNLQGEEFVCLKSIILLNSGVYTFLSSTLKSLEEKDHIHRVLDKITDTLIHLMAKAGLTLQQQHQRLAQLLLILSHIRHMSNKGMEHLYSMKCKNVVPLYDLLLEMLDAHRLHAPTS
Sequence of hERG potassium channel (Q12809 whole entry): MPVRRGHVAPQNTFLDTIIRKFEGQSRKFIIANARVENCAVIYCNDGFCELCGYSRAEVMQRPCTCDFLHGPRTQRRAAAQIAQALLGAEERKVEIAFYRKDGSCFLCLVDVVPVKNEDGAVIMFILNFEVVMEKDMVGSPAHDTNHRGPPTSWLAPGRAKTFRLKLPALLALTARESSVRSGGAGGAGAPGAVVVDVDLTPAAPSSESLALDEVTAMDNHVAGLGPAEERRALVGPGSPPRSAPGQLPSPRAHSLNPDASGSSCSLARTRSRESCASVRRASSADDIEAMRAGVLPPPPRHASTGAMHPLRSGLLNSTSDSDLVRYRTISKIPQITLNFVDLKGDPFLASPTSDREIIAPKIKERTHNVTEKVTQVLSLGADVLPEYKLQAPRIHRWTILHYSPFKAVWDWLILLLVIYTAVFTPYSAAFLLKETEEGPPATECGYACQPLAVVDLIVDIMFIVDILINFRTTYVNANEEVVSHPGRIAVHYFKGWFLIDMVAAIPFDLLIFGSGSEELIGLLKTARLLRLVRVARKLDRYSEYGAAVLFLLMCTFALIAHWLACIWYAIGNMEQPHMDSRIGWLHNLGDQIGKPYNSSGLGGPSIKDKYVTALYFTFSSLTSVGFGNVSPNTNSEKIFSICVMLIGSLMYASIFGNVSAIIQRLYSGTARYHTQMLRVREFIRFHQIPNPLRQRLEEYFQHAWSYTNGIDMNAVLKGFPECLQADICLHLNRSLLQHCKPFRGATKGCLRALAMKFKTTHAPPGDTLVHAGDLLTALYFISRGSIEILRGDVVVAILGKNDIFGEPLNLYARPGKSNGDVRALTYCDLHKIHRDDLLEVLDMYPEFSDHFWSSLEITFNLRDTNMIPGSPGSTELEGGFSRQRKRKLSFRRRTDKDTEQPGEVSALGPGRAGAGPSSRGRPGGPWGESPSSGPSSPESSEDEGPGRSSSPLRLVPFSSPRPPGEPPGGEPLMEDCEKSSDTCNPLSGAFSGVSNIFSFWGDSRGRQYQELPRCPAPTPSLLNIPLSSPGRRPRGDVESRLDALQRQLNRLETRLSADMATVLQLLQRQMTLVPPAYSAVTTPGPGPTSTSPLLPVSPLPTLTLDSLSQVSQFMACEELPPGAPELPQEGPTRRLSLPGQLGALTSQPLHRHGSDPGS

SMILES	IC50 [1]	Human plasma protein binding (% free) [2]	logD [3, 6]	solubility at 24 h [4]	IC50 [5]	IC50 (hERG potassium channel)	logD [3, 7]
COc1cc(NC2CN(CCCF)C2)ccc1[C@@H]1c2ccc3[nH]ncc3c2C[C@@H](C)N1CC1(CF)COC1 [Example 10, N-(4-((6S,8R)-7-((3-(fluoromethyl)oxetan-3-yl)methyl)-8-methyl-6,7,8,9-tetrahydro-3H-pyrazolo[4,3-f]isoquinolin-6-yl)-3-methoxyphenyl)-1-(3-fluoropropyl)azetidin-3-amine]	0.26 nM	23 % free	2.8	634 µM (≈ 333 µg/mL)	8 nM		
CCOc1cc(NC2CN(CCCF)C2)ccc1[C@@H]1c2ccc3[nH]ncc3c2C[C@@H](C)N1CC1(F)CC1 [Example 20, N-(3-ethoxy-4-((6S,8R)-7-((1-fluorocyclopropyl)methyl)-8-methyl-6,7,8,9-tetrahydro-3H-pyrazolo[4,3-f]isoquinolin-6-yl)phenyl)-1-(3-fluoropropyl)azetidin-3-amine]	0.36 nM	29 % free	2.8	730 µM (≈ 372 µg/mL)	15 nM		
COc1cc(OC2CN(CCCF)C2)ccc1[C@@H]1c2ccc3[nH]ncc3c2C[C@@H](C)N1CC(F)F [Example 22, (6S,8R)-7-(2,2-difluoroethyl)-6-(4-((1-(3-fluoropropyl)azetidin-3-yl)oxy)-2-methoxyphenyl)-8-methyl-6,7,8,9-tetrahydro-3H-pyrazolo[4,3-f]isoquinoline]	0.062 nM	4.6 % free	4	70 µM (≈ 34.2 µg/mL)	5.7 nM		
C[C@@H]1Cc2c(ccc3[nH]nc(F)c23)[C@@H](c2cnc(NC3CN(CCCF)C3)cn2)N1CC(F)(F)F [Example 38, 5-((6S,8R)-1-fluoro-8-methyl-7-(2,2,2-trifluoroethyl)-6,7,8,9-tetrahydro-3H-pyrazolo[4,3-f]isoquinolin-6-yl)-N-(1-(3-fluoropropyl)azetidin-3-yl)pyrazin-2-amine]	0.19 nM	13 % free	3.1	794 µM (≈ 393 µg/mL)	0.69 nM	18000 nM	
C[C@@H]1Cc2c(ccc3[nH]nc(F)c23)[C@@H](c2ccc(NC3CN(CCCF)C3)c(F)n2)N1CC(F)(F)F [Example 39, 2-fluoro-6-((6S,8R)-1-fluoro-8-methyl-7-(2,2,2-trifluoroethyl)-6,7,8,9-tetrahydro-3H-pyrazolo[4,3-f]isoquinolin-6-yl)-N-(1-(3-fluoropropyl)azetidin-3-yl)pyridin-3-amine]	0.048 nM	6.8 % free		257 µM (≈ 132 µg/mL)	0.94 nM	14000 nM	3.7
C[C@@H]1Cc2c(ccc3[nH]ncc23)[C@@](C)(c2ccc(NC3CN(CCCF)C3)cn2)N1CC(F)F [Example 44, 6-((6S,8R)-7-(2,2-difluoroethyl)-6,8-dimethyl-6,7,8,9-tetrahydro-3H-pyrazolo[4,3-f]isoquinolin-6-yl)-N-(1-(3-fluoropropyl)azetidin-3-yl)pyridin-3-amine]	0.91 nM	10 % free		998 µM (≈ 472 µg/mL)	9.6 nM		3.2
C[C@@H]1Cc2c(ccc3[nH]ncc23)[C@@H](c2cnc(NC3CN(CCCF)C3)cn2)N1CC(F)F [Example 50, 5-((6S,8R)-7-(2,2-difluoroethyl)-8-methyl-6,7,8,9-tetrahydro-3H-pyrazolo[4,3-f]isoquinolin-6-yl)-N-(1-(3-fluoropropyl)azetidin-3-yl)pyrazin-2-amine]	0.47 nM		2.1	748 µM (≈ 344 µg/mL)	2.7 nM	13000 nM	
C[C@@H]1Cc2c(ccc3[nH]ncc23)[C@@H](c2cnc(NC3CN(CCCF)C3)cn2)N1CC1(F)CC1 [Example 55, 5-((6S,8R)-7-((1-fluorocyclopropyl)methyl)-8-methyl-6,7,8,9-tetrahydro-3H-pyrazolo[4,3-f]isoquinolin-6-yl)-N-(1-(3-fluoropropyl)azetidin-3-yl)pyrazin-2-amine]	1.1 nM		2.1	987 µM (≈ 461 µg/mL)	8.2 nM	> 40000 nM	
C[C@@H]1Cc2c(ccc3[nH]ncc23)[C@@H](c2ccc(N(C)C3CN(CCCF)C3)cn2)N1CC1(F)CC1 [Example 57, 6-((6S,8R)-7-((1-fluorocyclopropyl)methyl)-8-methyl-6,7,8,9-tetrahydro-3H-pyrazolo[4 3-f]isoquinolin-6-yl)-N-(1-(3-fluoropropyl)azetidin-3-yl)-N-methylpyridin-3-amine]	0.36 nM		2.9	615 µM (≈ 296 µg/mL)	5 nM	16000 nM	
C[C@@H]1Cc2c(ccc3[nH]ncc23)[C@@H](c2ccc(OC3CN(CCCF)C3)cn2)N1CC(F)(F)CO [Example 58, 2,2-difluoro-3-((6S,8R)-6-(5-((1-(3-fluoropropyl)azetidin-3-yl)oxy)pyridin-2-yl)-8-methyl-3,6,8,9-tetrahydro-7H-pyrazolo[4,3-f]isoquinolin-7-yl)propan-1-ol]	0.56 nM		2.4	633 µM (≈ 310 µg/mL)	2.1 nM	> 40000 nM	
